In US20140242012A1, “METHODS FOR TREATING UV-DAMAGED SKIN AND SCC TUMORS AND FOR REMOVING TATTOOS WITH TOPICAL INGENOL MEBUTATE” (LEO Laboratories Limited, priority 2011, published 2014):

Assays:
UVB-induced skin lesions = assay: Field treatment of ~10 cm2 UVB-damaged skin: development of UVB-induced lesions; format: in vivo, SKH1/hr mice
Description: Outbred SKH1/hr mice were irradiated 3 times per week for 10-11 weeks under 6×TL-12/40 W fluorescent tubes (Phillips, Amsterdam, The Netherlands) mounted in parallel. The lamps emit 54% UVB (280-315 nm) and 46% UVA (315-400 nm) (Rebel et al., 2001). During the irradiation mice were segregated into individual boxes (11.5×20 cm) with a piece of 0.125 mm cellulose acetate placed over the box to prevent any UVC reaching the mice. The mice were 26 cm below the UV lamps. Under these conditions the mice received 1.25 times the minimal erythemal dose (MED) of UVB at each exposure, with the total UVB dose being 37.5 MED. One MED was defined as the minimal UVB dose, which caused erythema-oedema evident by visual examination. […] Such cessation was usually only necessary after the initial 2-3 doses of UVB, as mice become resistant to UVB-induced erythema with repeated exposures.
One to three days after discontinuation of UVB irradiation, a ˜10 cm2 rectangular area located centrally on the dorsa and previously demarcated by a tattoo were treated topically, daily for 2 days with 100 μl of 0.05% ingenol mebutate gel or 100 μl of placebo gel. An untreated group served as an additional control. The mice were monitored weekly for the development of lesions both within and outside the treatment areas. […] The number and size of lesions was monitored over time. All visible lesions were counted. […]

UVB-damaged skin = assay: Skin appearance and histology after treatment of UVB-damaged skin; format: in vivo, SKH1/hr mice
Description: For histological studies samples were fixed in 10% formalin and processed for paraffin embedding at the indicated times after ingenol mebutate treatment. Paraffin sections were stained with haematoxylin and eosin (H&E), or toluidine blue using standard protocols.
(§1) Three days after the last dose of UVB irradiation, an about 4 cm^2 dorsal area was topically treated daily for 2 days with 40 μl of 0.05% PEP005 gel or placebo gel. The treatment area was demarcated by a tattoo. Mice were culled 6 h (6 h) and 24 h (Day 1) after the first dose of 0.05% PEP005 gel and 24 h after the second dose of 0.05% PEP005 gel or placebo gel (Day 2). The samples were fixed in 10% formalin and processed by QIMR histology for paraffin embedding. Paraffin sections were stained with haematoxylin and eosin (H&E), Leder stain or toludine blue by QIMR Histotechnology, in accordance with standard protocols.
To identify the histological changes after 0.05% PEP005 gel treatment, skin was examined at different times after treatment; 6 h after the first dose was applied (6 h), 24 h after the first dose was applied (Day 1), and 24 h after the second dose was applied (Day 2). Placebo treated mice were treated with equivalent volumes of placebo gel and the skin examined 24 h after the second dose.
as §1, with “a ˜4 cm2” for “an about 4 cm^2”
Three days after the last dose of UVB irradiation, a ˜4 cm^2 dorsal area is topically treated daily for 2 days with 40 μl of 0.05% PEP005 gel or placebo gel. The treatment area is demarcated by a tattoo. […]

[1] = Ogbourne et al. 2004; cited from earlier work

SMILES: C/C=C(/C)C(=O)O[C@H]1C(C)=C[C@]23C(=O)[C@@H](C=C(CO)[C@@H](O)[C@]12O)[C@H]1[C@@H](C[C@H]3C)C1(C)C [ingenol mebutate]
- growth of individual lesions vs control and placebo (UVB-induced skin lesions; lesions within the treatment areas): no significant difference
- number of lesions outside the treatment area (UVB-induced skin lesions; ~10 cm2 area): not significantly affected
- haemorrhage in treated skin (UVB-damaged skin; 24-48 h after treatment initiation): widespread haemorrhage
- mast cells (toluidine blue staining) (UVB-damaged skin; 24 h): few toluidine blue staining cells could be seen
- reduction of mean skin area within the tattooed treatment area (UVB-damaged skin; after healing up to 20-21 weeks, ~4 or ~10 cm2 area): about 3 fold
- LD90 values [1]: 180 to 220 µM
